# Measured values as given in EP1718623B1, “COMPOUNDS AS INHIBITORS OF CELL PROLIFERATION AND VIRAL INFECTIONS” (4SC AG, priority 2004, dated 2005).
# Columns and labels:
# [1] = system: peripheral blood monocyte (PBMC); experiment: T Lymphocyte Proliferation Assay (PHA-stimulated PBMC, BrdU incorporation ELISA); format: cell-based; details: Homo sapiens, PBMCs stimulated with 2 µg/ml phytohemoagglutinin, 72 h
# Protocol: We used a nonradioactive technique for the measurement of in vitro T-cell proliferation (Messele T et al. Clinical and Diagnostic Laboratory Immunology,687-692,2002).
# Peripheral blood mononuclear cells (PBMCs) were isolated from human blood obtained from volunteer donators. PBMCs were isolated by centrifugation in ACCUSPIN tubes using HISTOPAQUE.
# PBMCs were stimulated with PHA and cell proliferation was measured with a Roche colorimetric BromUridin incorporation ELISA kit.
# Inhibition of stimulated peripheral blood monocyte (PBMC) stimulation
# PBMCs were isolated from the blood of healthy volunteers with the help of ACCUSPIN™ System Histopaque®-1077 tubes, washed and resuspended with 10^6 cells/ml in Dulbecco's modified eagles medium, containing 10 % fetal calf serum and 2 mM Glutamine.
# The cells were stimulated with 2 µg/ml phytohemoagglutinin in the presence of test compound or blank vehicle for 72 h. 4 h prior to the end of the incubation period, 5-bromo-2'-desoxyuridine (BrdU) was added to label the proliferating cells. After the incubation, the cells were separated by centrifugation and the culture supernatant removed. Incorporated BrdU was quantified with the help of an enzyme-linked immunosorbent assay.
# For the determination of the IC50 values (concentration of inhibitor required for 50% inhibition) at least four different inhibitor concentrations were applied. […]
# 20S proteasome = target: T1, 20S proteasome (Homo sapiens, UniProt P28074); experiment: Proteasome assay (chymotryptic activity, Suc-LLVT-AMC substrate); format: biochemical; details: 30°C, 20 min
# T1 construct: purchased Immatics, Tübingen
# Excerpt: Regulation of the immune response is controlled by a variety of signalling pathways such as T-cell or TNF receptor signalling (Chen G et al. Scienc,296 1634-1640,2002). To further characterize targets of compounds which we found active in the T-cell proliferation assay, we tested the compounds on a variety of targets involved in such pathways. Compounds described here are inhibitors of T-lymphocyte proliferation were active on three molecular targets: Kv1.3 ion channels and Inosine Monophosphate Dehydrogenase (IMPDH) and the human proteasome. The compounds described may act on one of these targets specifically or on several targets simultaneously.
# The chymotryptic activity of the 20S proteasome (Immatics, Tübingen) was determined using a Tecan Ultra plate reader and Suc-LLVT-AMC as substrate (Bachem). […]
# Kv1.3 channels = target: T2, Kv1.3 channels (Mus musculus, UniProt P16390); experiment: Kv1.3 assay, whole-cell patch-clamp in stable transfected L929 cells; format: cell-based; details: c=20 µM; each compound tested on two different cells; steady-state current
# T2 construct: expressed in transfected cells; host or cells: L929 cells
# Protocol: The inhibition of Kv1.3 was measured in stable transfected cell lines expressing mouse Kv1.3 using the patch-clamp technique (Rauer H et al. J Biol Chem Vol.275, No. 2, 1201-1208, 2000), Rauer H Mol Pharmacol,50, 1625-1634, 1996, Rauer H et al. J Pharmacol, 127, 1065-1074, 1999).
# Stable transfected L929 cells with Kv1.3 channels were grown in DMEM (Glutamax-I) media with 10% FCS, geneticin 330 µg/ml under 10% CO2 atmosphere.
# Whole-cell patch-clamp configuration, with an external bath solution of 160 mM NaCl, 4,5 mM KCl, 1 mM MgCl, 2 mM CaCl2,5 mM HEPES, 10 mM EGTA and NaOH adjusted to pH 7. 4. Internal pipette solution for recording was 155 mM KF, 2 mM MgCl2 , 10 mM HEPES, 10 mM EGTA with KOH adjusted to pH 7.2. Currents were activated by a 200-ms voltage step from a holding potential of -80 to 40 mV every 30 s. Holding potential -80 mV.
# Each compound was tested on two different cells. The cell was perfused with external bath solution (black line), then the compound was applied (c=20 µM). The resulting stedy-state current traces are shown as red lines. Example 3, 5, 6, 7, 8 are blockers.
# T-lymphocyte = details: inhibits T-lymphocyte proliferation; Kath JC et al. 1997; cited from earlier work
# Kv1.3 = Kv1.3 (Homo sapiens, UniProt P22001); details: blocks Kv1.3 currents; Kath JC et al. 1997; cited from earlier work
# Sequence of Kv1.3 (P22001 whole entry): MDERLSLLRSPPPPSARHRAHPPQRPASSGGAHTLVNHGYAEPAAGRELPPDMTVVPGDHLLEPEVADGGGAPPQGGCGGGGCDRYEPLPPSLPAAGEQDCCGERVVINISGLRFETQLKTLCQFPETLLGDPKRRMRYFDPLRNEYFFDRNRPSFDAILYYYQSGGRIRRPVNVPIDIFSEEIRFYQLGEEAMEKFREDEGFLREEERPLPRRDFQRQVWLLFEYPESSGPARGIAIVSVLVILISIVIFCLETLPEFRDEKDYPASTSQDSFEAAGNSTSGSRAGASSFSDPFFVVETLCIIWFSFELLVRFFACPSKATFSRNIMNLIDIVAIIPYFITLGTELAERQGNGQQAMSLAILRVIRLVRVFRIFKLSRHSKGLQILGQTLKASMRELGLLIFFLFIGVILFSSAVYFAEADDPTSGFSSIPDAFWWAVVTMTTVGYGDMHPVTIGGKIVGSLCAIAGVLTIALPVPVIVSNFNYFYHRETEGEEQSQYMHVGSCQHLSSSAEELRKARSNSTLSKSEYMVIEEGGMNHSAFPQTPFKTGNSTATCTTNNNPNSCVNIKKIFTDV
# T2 sequence (P16390 whole entry): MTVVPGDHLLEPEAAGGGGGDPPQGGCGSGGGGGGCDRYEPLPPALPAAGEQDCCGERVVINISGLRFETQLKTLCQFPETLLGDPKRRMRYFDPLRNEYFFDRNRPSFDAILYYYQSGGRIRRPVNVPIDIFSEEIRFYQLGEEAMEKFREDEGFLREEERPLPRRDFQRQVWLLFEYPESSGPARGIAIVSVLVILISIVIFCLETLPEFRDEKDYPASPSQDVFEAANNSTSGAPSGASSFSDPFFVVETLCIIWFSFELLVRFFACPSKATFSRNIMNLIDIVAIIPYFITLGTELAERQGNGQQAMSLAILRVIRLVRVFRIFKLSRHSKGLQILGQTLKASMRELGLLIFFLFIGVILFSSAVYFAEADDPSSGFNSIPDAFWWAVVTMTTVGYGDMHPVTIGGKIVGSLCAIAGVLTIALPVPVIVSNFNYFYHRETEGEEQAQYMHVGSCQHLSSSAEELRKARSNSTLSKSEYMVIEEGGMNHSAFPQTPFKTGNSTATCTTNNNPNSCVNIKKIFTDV
compound,measurement,setting,value
"O=C(Nc1ccc(C2=N[C@H](c3ccccc3)CO2)cc1)Nc1ccc(S(=O)(=O)NCc2cc(F)c(F)c(F)c2)cc1 [Example 1, 4-{3-[4-(4-(R)-Phenyl-4,5-dihydro-oxazol-2-yl)-phenyl]-ureido}-N-(3,4,5-trifluorobenzyl)-benzenesulfonamide]",IC50,[1],< 5 µM
same,IC50,20S proteasome,< 5 µM
"O=C(Nc1ccc(C2=N[C@H](Cc3ccccc3)CO2)cc1)Nc1ccc(S(=O)(=O)NCc2cc(F)c(F)c(F)c2)cc1 [Example 3, 4-{3-[4-(4-(R)-Benzyl-4,5-dihydro-oxazol-2-yl)-phenyl]- -ureido}-N-(3,4,5-trifluorobenzyl)-benzenesulfonamide]",Kv1.3 block,Kv1.3 channels,blockers
"O=C(Nc1ccc(S(=O)(=O)NCc2cc(F)c(F)c(F)c2)cc1)Nc1cccc(C2=N[C@@H](Cc3ccccc3)CO2)c1 [Example 22, 4-{3-[3-(4-(S)-Benzyl-4,5-dihydro-oxazol-2-yl)-phenyl]-ureido}-N-(3,4,5-trifluorobenzyl)-benzenesulfonamide]",IC50,[1],< 5 µM
"noxiustoxin (TIINVKCTSPKQCSKPCKELYGSSAGAKCMNGKCKCYNN; UniProt P08815 1-39, looked up)",IC50,T-lymphocyte,8 nM
same,IC50,Kv1.3,0.2 nM
